Experiments:
Diabrotica balteata = Diabrotica balteata (corn root worm), maize sprouts sprayed, L2 larvae; type: in vivo; conditions: 96 h, application rate 200 ppm, 4 days after infestation, read-out: control in at least one of the categories (mortality or growth inhibition)
Protocol: Maize sprouts placed onto an agar layer in 24-well microtiter plates were treated with aqueous test solutions prepared from 10′000 ppm DMSO stock solutions by spraying. After drying, the plates were infested with L2 larvae (6 to 10 per well). The samples were assessed for mortality and growth inhibition in comparison to untreated samples 4 days after infestation. The following compounds gave an effect of at least 80% control in at least one of the categories (mortality or growth inhibition) at an application rate of 200 ppm: P1, P2, P3, P6, P7, P8, P10.

Plutella xylostella [1] = test: Plutella xylostella (diamondback moth), 96-well artificial diet, eggs; type: in vivo; conditions: 216 h, application rate 500 ppm, 9 days after infestation, 96-well plates, read-out: control (mortality)
Protocol: 96-well microtiter plates containing artificial diet were treated with aqueous test solutions, prepared from 10′000 ppm DMSO stock solutions, by a liquid handling robot. After drying, eggs (˜30 per well) were infested onto a netted lid which was suspended above the diet. The eggs hatch and L1 larvae move down to the diet. The samples were assessed for mortality 9 days after infestation.

Spodoptera littoralis = Spodoptera littoralis (Egyptian cotton leaf worm), cotton leaf discs sprayed, L1 larvae; type: in vivo; conditions: foliar, 72 h, application rate 200 ppm, 3 days after infestation, read-out: control in at least one of the categories (mortality, anti-feedant effect or growth inhibition)
Protocol: Cotton leaf discs were placed onto agar in 24-well microtiter plates and sprayed with aqueous test solutions prepared from 10′000 ppm DMSO stock solutions. After drying the leaf discs were infested with five L1 larvae. The samples were assessed for mortality, anti-feeding effect, and growth inhibition in comparison to untreated samples 3 days after infestation. Control of Spodoptera littoralis by a test sample is given when at least one of the categories mortality, anti-feedant effect, and growth inhibition is higher than the untreated sample.

Chilo suppressalis = Chilo suppressalis (striped rice stemborer), artificial diet, L2 larvae; type: in vivo; conditions: 144 h, application rate 200 ppm, 6 days after infestation, read-out: control in at least one of the categories (mortality, anti-feedant effect or growth inhibition)
Protocol: 24-well microtiter plates with artificial diet were treated with aqueous test solutions prepared from 10′000 ppm DMSO stock solutions by pipetting. After drying, the plates were infested with L2 larvae (6-8 per well). The samples were assessed for mortality, anti-feeding effect, and growth inhibition in comparison to untreated samples 6 days after infestation. Control of Chilo suppressalis by a test sample is given when at least one of the categories mortality, anti-feedant effect, and growth inhibition is higher than the untreated sample.

Plutella xylostella [2] = test: Plutella xylostella (diamond back moth), 24-well artificial diet, eggs; type: in vivo; conditions: 192 h, application rate 200 ppm, 8 days after infestation, 24-well plates, read-out: control in at least one of the categories (mortality or growth inhibition)
Protocol: 24-well microtiter plates with artificial diet were treated with aqueous test solutions prepared from 10′000 ppm DMSO stock solutions by pipetting. After drying, Plutella eggs were pipetted through a plastic stencil onto a gel blotting paper and the plate was closed with it. The samples were assessed for mortality and growth inhibition in comparison to untreated samples 8 days after infestation. The following compounds gave an effect of at least 80% control in at least one of the categories (mortality or growth inhibition) at an application rate of 200 ppm: P1, P2, P3, P7, P10.

Myzus persicae = Myzus persicae (green peach aphid): feeding/contact activity, sunflower leaf discs; type: in vivo; conditions: foliar, 144 h, application rate 200 ppm, 6 days after infestation, mixed ages
Protocol: Sunflower leaf discs were placed onto agar in a 24-well microtiter plate and sprayed with aqueous test solutions prepared from 10′000 ppm DMSO stock solutions. After drying, the leaf discs were infested with an aphid population of mixed ages. The samples were assessed for mortality 6 days after infestation.

Row | SMILES | melting point [°C] | percent control (mortality or growth inhibition) at 200 ppm (Diabrotica balteata) [%] | percent control (mortality, anti-feedant effect or growth inhibition) at 200 ppm (Spodoptera littoralis) [%] | percent control (mortality or growth inhibition) at 200 ppm (Plutella xylostella [2]) [%] | further results
1 | CC(Nc1c(C#N)sc2c(C(F)(F)F)cc(C(F)(F)F)cc12)c1ncnn1-c1ccc(C#N)cn1 (centres unmarked) [P4, 6-[5-[1-[[2-cyano-5,7-bis(trifluoromethyl)benzothiophen-3-yl]amino]ethyl]-1,2,4-triazol-1-yl]pyridine-3-carbonitrile] | 192 to 194 | – | – | – | –
2 | CC(c1nccnc1-c1ncccn1)N(CC1CC1)c1nn(C)c2c(Cl)cc(C(F)(F)F)cc12 (centres unmarked) [P8, 7-chloro-N-(cyclopropylmethyl)-1-methyl-N-[1-(3-pyrimidin-2-ylpyrazin-2-yl)ethyl]-5-(trifluoromethyl)indazol-3-amine] | – | ≥ 80 | ≥ 80 | – | mortality at 500 ppm (Plutella xylostella [1]): ≥ 80%
3 | CC(c1nccnc1-c1ncccn1)N(CC1CC1)c1nn(C)c2c(C(F)(F)F)cc(C(F)(F)F)cc12 (centres unmarked) [P7, N-(cyclopropylmethyl)-1-methyl-N-[1-(3-pyrimidin-2-ylpyrazin-2-yl)ethyl]-5,7-bis(trifluoromethyl)indazol-3-amine] | – | ≥ 80 | ≥ 80 | ≥ 80 | percent control (mortality, anti-feedant effect or growth inhibition) at 200 ppm (Chilo suppressalis): ≥ 80%
4 | CC(Nc1snc2c(C(F)(F)F)cc(C(F)(F)F)cc12)c1ncnn1-c1ncccn1 (centres unmarked) [P1, N-[1-(2-pyrimidin-2-yl-1,2,4-triazol-3-yl)ethyl]-5,7-bis(trifluoromethyl)-2,1-benzothiazol-3-amine] | – | ≥ 80 | ≥ 80 | ≥ 80 | –
5 | COC(=O)c1sc2c(C(F)(F)F)cc(C(F)(F)F)cc2c1NC(C)c1ncnn1-c1ccc(C#N)cn1 (centres unmarked) [P5, methyl 3-[1-[2-(5-cyano-2-pyridyl)-1,2,4-triazol-3-yl]ethylamino]-5,7-bis(trifluoromethyl)benzothiophene-2-carboxylate] | 195 to 197 | – | – | – | –
6 | CC(Nc1noc2c(Cl)cc(C(F)(F)F)cc12)c1nc(Br)nn1-c1ncccn1 (centres unmarked) [P9, N-[1-(5-bromo-2-pyrimidin-2-yl-1,2,4-triazol-3-yl)ethyl]-7-chloro-5-(trifluoromethyl)-1,2-benzoxazol-3-amine] | 160 to 163 | – | – | – | –
7 | CC(Nc1noc2c(F)cc(F)cc12)c1nccnc1-n1nccn1 (centres unmarked) [P13, 5,7-difluoro-N-[1-[3-(triazol-2-yl)pyrazin-2-yl]ethyl]-1,2-benzoxazol-3-amine] | 199 to 201 | – | – | – | –
8 | CC(Nc1noc2c(F)cc(F)cc12)c1nccnc1-n1ccnn1 (centres unmarked) [P12, 5,7-difluoro-N-[1-[3-(triazol-1-yl)pyrazin-2-yl]ethyl]-1,2-benzoxazol-3-amine] | – | – | – | – | mortality at 200 ppm (Myzus persicae): ≥ 80%
9 | C[C@H](Nc1snc2c(C(F)(F)F)cc(C(F)(F)F)cc12)c1ncnn1-c1ccc(C#N)cn1 [P2, 6-[5-[(1S)-1-[[5,7-bis(trifluoromethyl)-2,1-benzothiazol-3-yl]amino]ethyl]-1,2,4-triazol-1-yl]pyridine-3-carbonitrile] | – | ≥ 80 | ≥ 80 | ≥ 80 | –
10 | CC(Nc1noc2ccc(Br)cc12)c1ncnn1-c1ncccn1 (centres unmarked) [P17, 5-bromo-N-[1-(2-pyrimidin-2-yl-1,2,4-triazol-3-yl)ethyl]-1,2-benzoxazol-3-amine] | 233 to 235 | – | – | – | –
11 | CC(Nc1nn(C)c2c(C(F)(F)F)cc(C(F)(F)F)cc12)c1ncnn1-c1ncccn1 (centres unmarked) [P6, 1-methyl-N-[1-(2-pyrimidin-2-yl-1,2,4-triazol-3-yl)ethyl]-5,7-bis(trifluoromethyl)indazol-3-amine] | – | ≥ 80 | ≥ 80 | – | percent control (mortality, anti-feedant effect or growth inhibition) at 200 ppm (Chilo suppressalis): ≥ 80%
12 | COC(=O)c1cc(Cl)cc2c(N[C@@H](C)c3ncnn3-c3ccc(C#N)cn3)csc12 [P18, methyl 5-chloro-3-[[(1S)-1-[2-(5-cyano-2-pyridyl)-1,2,4-triazol-3-yl]ethyl]amino]benzothiophene-7-carboxylate] | – | – | – | – | mortality at 500 ppm (Plutella xylostella [1]): ≥ 80%
13 | CC(c1ncnn1-c1ccc(C#N)cn1)N(C)c1c(C#N)sc2c(C(F)(F)F)cc(C(F)(F)F)cc12 (centres unmarked) [P3, 6-[5-[1-[[2-cyano-5,7-bis(trifluoromethyl)benzothiophen-3-yl]-methyl-amino]ethyl]-1,2,4-triazol-1-yl]pyridine-3-carbonitrile] | – | ≥ 80 | – | ≥ 80 | percent control (mortality, anti-feedant effect or growth inhibition) at 200 ppm (Chilo suppressalis): ≥ 80%
14 | CC(Nc1nn(C)c2c(Cl)cc(C(F)(F)F)cc12)c1nc(Br)nn1-c1ncccn1 (centres unmarked) [P11, N-[1-(5-bromo-2-pyrimidin-2-yl-1,2,4-triazol-3-yl)ethyl]-7-chloro-1-methyl-5-(trifluoromethyl)indazol-3-amine] | 262 to 264 | – | – | – | –
15 | CC(Nc1nn(C)c2c(C(F)(F)F)cc(C(F)(F)F)cc12)c1nc(Br)nn1-c1ncccn1 (centres unmarked) [P10, N-[1-(5-bromo-2-pyrimidin-2-yl-1,2,4-triazol-3-yl)ethyl]-1-methyl-5,7-bis(trifluoromethyl)indazol-3-amine] | – | ≥ 80 | – | ≥ 80 | percent control (mortality, anti-feedant effect or growth inhibition) at 200 ppm (Chilo suppressalis): ≥ 80%; mortality at 500 ppm (Plutella xylostella [1]): ≥ 80%
16 | CC(Nc1noc2ccc(Br)cc12)c1ncnn1-c1ccc(C#N)cn1 (centres unmarked) [P16, 6-[5-[1-[(5-bromo-1,2-benzoxazol-3-yl)amino]ethyl]-1,2,4-triazol-1-yl]pyridine-3-carbonitrile] | 175 to 177 | – | – | – | –

From US20230053607A1, “PESTICIDALLY ACTIVE FUSED BICYCLIC HETEROAROMATIC AMINO COMPOUNDS” (SYNGENTA CROP PROTECTION AG, priority 2019, published 2023)
